# Patent EP1881000A1, “Conjugates of 2-fluoro-2-deoxy-glucose and their uses as anti cancer agents” (INSTITUT NATIONAL DE LA SANTE ET DE LA RECHERCHE MEDICALE …, priority 2006, dated 2008)
# What was measured:
# [1] = system: murine colon carcinoma cell line CT-26; test: In vitro cytotoxicity assay (resazurin reduction test); format: cell-based; details: Mus musculus; CT26; 48-h continuous drug exposure
# Source text: (§1) Normal human fibroblasts were purchased from Promocell (Heidelberg, Germany). This frozen culture was obtained from foreskin waste and the cells used in this work were from the seventh to twelfth passage of the culture. M4Beu, a human melanoma cell line, was established in the laboratory of Dr. J. F. Doré (INSERM, Unit 218, Lyon, France) from metastatic biopsy specimens and maintained in cell culture for almost 20 years in our lab. Breast cancer adenocarcinoma MCF 7, prostatic adenocarcinoma PC 3, colon adenocarcinoma DLD-1, lung non-small cell carcinoma A 549, ovary adenocarcinoma PA1 human cell lines and L 929 murine cell line were purchased from the European Collection of Cell Cultures (ECACC; Salisbury, United Kingdom). Murine Melanoma B16 was purchased from American Type of Culture Collection (ATCC, Manassas, USA) and murine colon carcinoma cell line CT-26 was obtained from Dr I. J. Fidler (University of Texas M.D. Anderson Cancer Center, Houston).
# (§2) Stock cell cultures were maintained as monolayers in 75cm^2 culture flasks in Glutamax Eagle's minimum essential medium with Earle's salts (MEM; Gibco BRL, Paisley, UK) supplemented with 10% fetal calf serum (Sigma, St Quentin Fallavier, France), 1 mM sodium pyruvate (Gibco), 1X vitamins solution (Gibco), 1X non essential amino acids solution (Gibco) and 4 µg/ml of gentamicine (Gibco). Cells were grown at 37°C in a humidified atmosphere containing 5% CO2.
# (§3) Cells were plated at a density of 5 x 10^3 cells per well in 96-well microplates (Nunclon™, Nunc, Roskilde, Denmark) in 150 µl of culture medium and were allowed to adhere for 16 h before treatment with the compound tested.
# (§4) Stock solution of each compound was prepared in dimethylsulfoxide (DMSO) and kept at -20°C. until use. The percentage of DMSO was kept at 0.5% (v/v) whichever the concentration tested. […] Fifty microliters of a 4X solution in MEM was then added and a 48-h continuous drug exposure protocol was used. Then, the cytotoxic effect of compounds on tumour cells was tested by using Resazurin reduction test.
# (§5) Resazurin was identified as the Alamar blue dye (O'Brien, J. et al.; European Journal of Biochemistry, 267, 5421-6, (2000)). The resazurin reduction test (RRT) was carried out according to the protocol described here. Briefly, plates were rinsed by 200 µl PBS (37° C, Gibco) using a multichannel dispenser (Labsystems, Helsinki, Finland) and emptied by overturning on absorbent toweling. Then, 150 µl of a 25 µg/ml solution of resazurin in MEM without SVF nor Phenol red was added in each well. The plates were incubated 1 h at 37° C. in an humidified atmosphere with 5% of CO2 for fluorescence development by living cells. Fluorescence was then measured on the automated 96-well plate reader Fluoroskan Ascent FL™ (Labsystems) using an excitation wavelength of 530 nm and an emission one of 590 nm.
# [2] = system: Murine Melanoma B16; test: as above; format: cell-based; details: Mus musculus, 48-h continuous drug exposure
# Source text: as §1, §2, §3, §4, §5
# [3] = Determination of the Maximum Tolerated Dose (MTD), acute toxicity after a single IP injection; format: in vivo, male OF1 mice; design: key to Clinical State Score (CSS) diarrhoea / Clinical State Score (CSS) rough coat / Clinical State Score (CSS) closed eyes / Clinical State Score (CSS) lethargy / Clinical State Score (CSS) total: per mouse 0 = absent, 1 = present per sign; summed over group; details: for dosage inducing high side effects (mainly diarrhoea): as early as Day 1 after IP administration; for MTD at 2 weeks: male, OF1, mouse, in vivo, zero deaths, maximal weight loss 15 % at Day 1, CSS as low as possible; for MTD at 2 weeks / doses inducing 100% mortality: single IP administration; for Clinical State Score (CSS) closed eyes / Clinical State Score (CSS) diarrhoea / Clinical State Score (CSS) lethargy / Clinical State Score (CSS) rough coat / Clinical State Score (CSS) total: group sum; for Number of deaths (day): non-tumour bearing mice
# Protocol: Drugs were dissolved in a mixture of dimethylacetamide (Sigma) and oleic macrogolglycerides (Labrafil® M1944Cs, Gattefossé) (10:90%, vol/vol).
# Initially, the Maximum Tolerated Dose (MTD) after intraperitoneal (IP) administration was determinated.
# For MTD determination, study was conducted on male OF1 mice weighing about 30 g, 6-weeks old (Charles River, France). Groups of five to six mice received a single IP injection of each drug at variable doses according to the compound (see Tables 2, 3 and 4).
# Individual dose were based on the body weight of each mouse. All the mice received a constant injection volume of 250 µL per 25 g of body weight. A group of seven control mice received the vehicle.
# After IP injection, mice were weighed and observed every two days over a 2 week-period to evaluate general clinical state. For each animal, a clinical state score (CSS) was calculated based on the absence (value 0) or presence (value 1) of diarrhoea, lethargy, rough coat and closed eyes. CSS was then calculated per group by summing individual scores. Loss of weight and mortality were also recorded.
# [4] = system: colon adenocarcinoma DLD-1; test: In vitro cytotoxicity assay (resazurin reduction test); format: cell-based; details: Homo sapiens, DLD1, 48-h continuous drug exposure
# Source text: as §1, §2, §3, §4, §5
# (§6) Cytotoxic activity has been tested against the six human tumour cell lines breast adenocarcinoma MCF-7, colon adenocarcinoma DLD-1, ovary adenocarcinoma PA1, prostatic adenocarcinoma PC3, lung carcinoma A549, melanoma M4Beu and a primary culture of human fibroblasts.
# [5] = system: M4Beu, a human melanoma cell line; test: as above; format: cell-based; details: 48-h continuous drug exposure
# Source text: as §1, §2, §3, §4, §5, §6
# [6] = system: Normal human fibroblasts; test: as above; format: cell-based; details: Fibroblast, 48-h continuous drug exposure
# Source text: as §1, §2, §3, §4, §5, §6
# [7] = system: ovary adenocarcinoma PA1; test: as above; format: cell-based; details: Homo sapiens, 48-h continuous drug exposure
# Source text: as §1, §2, §3, §4, §5, §6
# [8] = system: lung non-small cell carcinoma A 549; test: as above; format: cell-based; details: Homo sapiens; A549; 48-h continuous drug exposure
# Source text: as §1, §2, §3, §4, §5, §6
smiles,measurement,setting,value
"CC(=O)OC[C@H]1O[C@@H](Oc2ccc(NC(=O)CNC(=O)CCCc3ccc(N(CCCl)CCCl)cc3)cc2)[C@H](F)[C@@H](OC(C)=O)[C@@H]1OC(C)=O [Compound 40a, N-{2-[4-(3,4,6-tri-O-acetyl-2-deoxy-2-fluoro-β-D-glucopyranosyloxy)phenyl]amino-2-oxoethyl}-4-{4-[bis(2-chloroethyl)amino]phenyl}butanamide]",IC50,[1],4.3 ± 0.2 µM
same,IC50,[2],10 ± 0.5 µM
same,dosage inducing high side effects (mainly diarrhoea),[3],≥ 0.07 mmol/kg
same,MTD at 2 weeks,[3],140 µmol/kg
same,Weight loss at day 1,[3]; single IP 0.07 mmol/kg,6.3%
same,Clinical State Score (CSS) closed eyes,[3]; single IP 0.07 mmol/kg,0
same,Clinical State Score (CSS) diarrhoea,[3]; single IP 0.07 mmol/kg,2
same,Clinical State Score (CSS) lethargy,[3]; single IP 0.07 mmol/kg,0
same,Clinical State Score (CSS) rough coat,[3]; single IP 0.07 mmol/kg,0
same,Clinical State Score (CSS) total,[3]; single IP 0.07 mmol/kg,2
same,Number of deaths (day),[3]; single IP 0.07 mmol/kg,0
same,Weight loss at day 1,[3]; single IP 0.14 mmol/kg,14.9%
same,Clinical State Score (CSS) closed eyes,[3]; single IP 0.14 mmol/kg,0
same,Clinical State Score (CSS) diarrhoea,[3]; single IP 0.14 mmol/kg,2
same,Clinical State Score (CSS) lethargy,[3]; single IP 0.14 mmol/kg,0
same,Clinical State Score (CSS) rough coat,[3]; single IP 0.14 mmol/kg,0
same,Clinical State Score (CSS) total,[3]; single IP 0.14 mmol/kg,2
same,Number of deaths (day),[3]; single IP 0.14 mmol/kg,0
same,Weight loss at day 1,[3]; single IP 0.18 mmol/kg,8.2%
same,Clinical State Score (CSS) closed eyes,[3]; single IP 0.18 mmol/kg,0
same,Clinical State Score (CSS) diarrhoea,[3]; single IP 0.18 mmol/kg,3
same,Clinical State Score (CSS) lethargy,[3]; single IP 0.18 mmol/kg,0
same,Clinical State Score (CSS) rough coat,[3]; single IP 0.18 mmol/kg,3
same,Clinical State Score (CSS) total,[3]; single IP 0.18 mmol/kg,6
same,Number of deaths (day),[3]; single IP 0.18 mmol/kg,2
same,Number of deaths (day),[3]; single IP 0.21 mmol/kg,3 (D6)
same,Weight loss at day 1,[3]; single IP 0.28 mmol/kg,18.3%
same,Clinical State Score (CSS) closed eyes,[3]; single IP 0.28 mmol/kg,2
same,Clinical State Score (CSS) diarrhoea,[3]; single IP 0.28 mmol/kg,4
same,Clinical State Score (CSS) lethargy,[3]; single IP 0.28 mmol/kg,2
same,Clinical State Score (CSS) rough coat,[3]; single IP 0.28 mmol/kg,0
same,Clinical State Score (CSS) total,[3]; single IP 0.28 mmol/kg,8
same,Number of deaths (day),[3]; single IP 0.28 mmol/kg,2 (D1)
same,Number of deaths (day),[3]; single IP 0.42 mmol/kg,3(D6)
same,Number of deaths (day),[3]; single IP 0.56 mmol/kg,"5(D6,7,9,13,15)"
same,doses inducing 100% mortality,[3],0.56 mmol/kg
same,IC50,[4],6 ± 2 µM
same,IC50,[5],15 ± 6 µM
same,IC50,[6],17 ± 6 µM
same,IC50,[7],1500 ± 500 nM
same,IC50,[8],10 ± 5 µM
"CC(=O)OC[C@H]1O[C@@H](NC(=O)CNC(=O)CCCc2ccc(N(CCCl)CCCl)cc2)[C@H](F)[C@@H](OC(C)=O)[C@@H]1OC(C)=O [Compound 21a, N-[2-(3,4,6-tri-O-acetyl-2-deoxy-2-fluoro-β-D-glucopyranosylamino)-2-oxoethyl]-4-{4-[bis(2-chloroethyl)amino]phenyl}butanamide]",IC50,[1],7 ± 1 µM
same,IC50,[2],6.4 ± 0.6 µM
same,dosage inducing high side effects (mainly diarrhoea),[3],≥ 0.14 mmol/kg
same,MTD at 2 weeks,[3],140 µmol/kg
same,Weight loss at day 1,[3]; single IP 0.07 mmol/kg,5.6%
same,Clinical State Score (CSS) closed eyes,[3]; single IP 0.07 mmol/kg,0
same,Clinical State Score (CSS) diarrhoea,[3]; single IP 0.07 mmol/kg,1
same,Clinical State Score (CSS) lethargy,[3]; single IP 0.07 mmol/kg,0
same,Clinical State Score (CSS) rough coat,[3]; single IP 0.07 mmol/kg,0
same,Clinical State Score (CSS) total,[3]; single IP 0.07 mmol/kg,1
same,Number of deaths (day),[3]; single IP 0.07 mmol/kg,0
same,Weight loss at day 1,[3]; single IP 0.14 mmol/kg,8.4%
same,Clinical State Score (CSS) closed eyes,[3]; single IP 0.14 mmol/kg,0
same,Clinical State Score (CSS) diarrhoea,[3]; single IP 0.14 mmol/kg,4
same,Clinical State Score (CSS) lethargy,[3]; single IP 0.14 mmol/kg,0
same,Clinical State Score (CSS) rough coat,[3]; single IP 0.14 mmol/kg,0
same,Clinical State Score (CSS) total,[3]; single IP 0.14 mmol/kg,4
same,Number of deaths (day),[3]; single IP 0.14 mmol/kg,0
same,Weight loss at day 1,[3]; single IP 0.18 mmol/kg,10.4%
same,Clinical State Score (CSS) closed eyes,[3]; single IP 0.18 mmol/kg,0
same,Clinical State Score (CSS) diarrhoea,[3]; single IP 0.18 mmol/kg,4
same,Clinical State Score (CSS) lethargy,[3]; single IP 0.18 mmol/kg,0
same,Clinical State Score (CSS) rough coat,[3]; single IP 0.18 mmol/kg,4
same,Clinical State Score (CSS) total,[3]; single IP 0.18 mmol/kg,8
same,Number of deaths (day),[3]; single IP 0.18 mmol/kg,1
same,Weight loss at day 1,[3]; single IP 0.21 mmol/kg,9.7%
same,Clinical State Score (CSS) closed eyes,[3]; single IP 0.21 mmol/kg,0
same,Clinical State Score (CSS) diarrhoea,[3]; single IP 0.21 mmol/kg,1
same,Clinical State Score (CSS) lethargy,[3]; single IP 0.21 mmol/kg,2
same,Clinical State Score (CSS) rough coat,[3]; single IP 0.21 mmol/kg,4
same,Clinical State Score (CSS) total,[3]; single IP 0.21 mmol/kg,7
same,Number of deaths (day),[3]; single IP 0.21 mmol/kg,1 (D1)
same,Number of deaths (day),[3]; single IP 0.28 mmol/kg,4 (D1)
same,Number of deaths (day),[3]; single IP 0.56 mmol/kg,4 (D1)
same,Number of deaths (day),[3]; single IP 0.76 mmol/kg,5 (D1)
same,doses inducing 100% mortality,[3],0.76 mmol/kg
same,IC50,[4],4 ± 3 µM
same,IC50,[5],6.8 ± 0.9 µM
same,IC50,[6],4.1 ± 0.1 µM
same,IC50,[7],1000 ± 100 nM
same,IC50,[8],5 ± 2 µM
"O=C(O)CCCc1ccc(N(CCCl)CCCl)cc1 [chlorambucil, reference compound]",IC50,[1],6.3 ± 0.4 µM
same,IC50,[2],42.6 ± 9.5 µM
same,dosage inducing high side effects (mainly diarrhoea),[3],≥ 0.0175 mmol/kg
same,MTD at 2 weeks,[3],50 µmol/kg
same,Weight loss at day 1,[3]; single IP 0.0175 mmol/kg,1.4%
same,Number of deaths (day),[3]; single IP 0.0175 mmol/kg,0
same,Weight loss at day 1,[3]; single IP 0.035 mmol/kg,6.1%
same,Number of deaths (day),[3]; single IP 0.035 mmol/kg,0
same,Weight loss at day 1,[3]; single IP 0.05 mmol/kg,12.9%
same,Number of deaths (day),[3]; single IP 0.05 mmol/kg,0
same,Weight loss at day 1,[3]; single IP 0.07 mmol/kg,13.1%
same,Number of deaths (day),[3]; single IP 0.07 mmol/kg,0
same,Weight loss at day 1,[3]; single IP 0.09 mmol/kg,26%
same,Number of deaths (day),[3]; single IP 0.09 mmol/kg,1 (D1)
same,Number of deaths (day),[3]; single IP 0.14 mmol/kg,4 (D1)
same,doses inducing 100% mortality,[3],0.14 mmol/kg
same,IC50,[4],47 ± 17 µM
same,IC50,[5],> 100 µM
same,IC50,[6],99 ± 2 µM
same,IC50,[7],2800 ± 400 nM
same,IC50,[8],43 ± 14 µM
